# From PubChem BioAssay (NCI)
#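 Each compound was tested at five concentrations against cells in 96-well plates for 48 hours. Abbreviation: GI50, concentration required for 50% inhibition of growth. TGI marks complete inhibition of growth.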
# Experiments:
# Assay in all cases: NCI-60 cell line screen, 48 h
# SK-MEL-28 melanoma = test system: SK-MEL-28 melanoma
# KM12 colon = test system: KM12 colon
# MDA-MB-435 = test system: MDA-MB-435
# COLO 205 colon = test system: COLO 205 colon
# NCI-H23 lung = test system: NCI-H23 lung
# A549 NSCLC = test system: A549 NSCLC
# NCI-H226 lung = test system: NCI-H226 lung
# RXF 393 renal = test system: RXF 393 renal
# SR leukemia = test system: SR leukemia
# NCI-H522 lung = test system: NCI-H522 lung
# HS 578T breast = test system: HS 578T breast
# SK-MEL-5 melanoma = test system: SK-MEL-5 melanoma
# IGROV1 ovarian = test system: IGROV1 ovarian
# T-47D breast = test system: T-47D breast
# LOX IMVI melanoma = test system: LOX IMVI melanoma
# NCI-H460 lung = test system: NCI-H460 lung
# UACC-257 melanoma = test system: UACC-257 melanoma
# SK-OV-3 ovarian = test system: SK-OV-3 ovarian
# NCI/ADR-RES ovarian = test system: NCI/ADR-RES ovarian
# SN12C renal = test system: SN12C renal
# SF-268 CNS = test system: SF-268 CNS
# DU-145 prostate = test system: DU-145 prostate
# OVCAR-4 ovarian = test system: OVCAR-4 ovarian
# OVCAR-5 ovarian = test system: OVCAR-5 ovarian
# CAKI-1 renal = test system: CAKI-1 renal
# EKVX NSCLC = test system: EKVX NSCLC
# MDA-MB-231 breast = test system: MDA-MB-231 breast
# MCF7 breast = test system: MCF7 breast
# HOP-92 NSCLC = test system: HOP-92 NSCLC
# SNB-75 CNS = test system: SNB-75 CNS
# UO-31 renal = test system: UO-31 renal
# ACHN renal = test system: ACHN renal
# CCRF-CEM leukemia = test system: CCRF-CEM leukemia
# SW-620 colon = test system: SW-620 colon
# OVCAR-8 ovarian = test system: OVCAR-8 ovarian
# HCC-2998 colon = test system: HCC-2998 colon
# TK-10 renal = test system: TK-10 renal
# HOP-62 NSCLC = test system: HOP-62 NSCLC
# MALME-3M melanoma = test system: MALME-3M melanoma
# HL-60(TB) leukemia = test system: HL-60(TB) leukemia
# 786-0 renal = test system: 786-0 renal
# HCT-15 colon = test system: HCT-15 colon
# HT29 colon = test system: HT29 colon
# RPMI-8226 leukemia = test system: RPMI-8226 leukemia
# HCT-116 colon = test system: HCT-116 colon
# SF-295 CNS = test system: SF-295 CNS
# OVCAR-3 ovarian = test system: OVCAR-3 ovarian
# U251 CNS = test system: U251 CNS
# M14 melanoma = test system: M14 melanoma
# K-562 leukemia = test system: K-562 leukemia
# SNB-19 CNS = test system: SNB-19 CNS
# A498 renal = test system: A498 renal
# UACC-62 melanoma = test system: UACC-62 melanoma
# MOLT-4 leukemia = test system: MOLT-4 leukemia
# SF-539 CNS = test system: SF-539 CNS
# PC-3 prostate = test system: PC-3 prostate
# BT-549 breast = test system: BT-549 breast
# SK-MEL-2 melanoma = test system: SK-MEL-2 melanoma
smiles,measurement,setting,value
O=C(c1ccccc1)c1c(C(F)(F)F)n([O-])c2cc(C(F)(F)F)ccc2[n+]1=O,GI50,SK-MEL-28 melanoma,1710 nM
same,TGI,SK-MEL-28 melanoma,3230 nM
same,GI50,KM12 colon,1600 nM
same,TGI,KM12 colon,3170 nM
same,GI50,MDA-MB-435,1600 nM
same,TGI,MDA-MB-435,3020 nM
same,GI50,COLO 205 colon,1410 nM
same,TGI,COLO 205 colon,3270 nM
same,GI50,NCI-H23 lung,1540 nM
same,TGI,NCI-H23 lung,4900 nM
same,GI50,A549 NSCLC,1720 nM
same,TGI,A549 NSCLC,3480 nM
same,GI50,NCI-H226 lung,1830 nM
same,TGI,NCI-H226 lung,4010 nM
same,GI50,RXF 393 renal,1340 nM
same,TGI,RXF 393 renal,2920 nM
same,GI50,SR leukemia,1170 nM
same,TGI,SR leukemia,3530 nM
same,GI50,NCI-H522 lung,1230 nM
same,TGI,NCI-H522 lung,2720 nM
same,GI50,HS 578T breast,1800 nM
same,TGI,HS 578T breast,4290 nM
same,GI50,SK-MEL-5 melanoma,1690 nM
same,TGI,SK-MEL-5 melanoma,3240 nM
same,GI50,IGROV1 ovarian,207 nM
same,TGI,IGROV1 ovarian,489 nM
same,GI50,T-47D breast,1460 nM
same,TGI,T-47D breast,3380 nM
same,GI50,LOX IMVI melanoma,258 nM
same,TGI,LOX IMVI melanoma,745 nM
same,GI50,NCI-H460 lung,1680 nM
same,TGI,NCI-H460 lung,3420 nM
same,GI50,UACC-257 melanoma,1710 nM
same,TGI,UACC-257 melanoma,3350 nM
same,GI50,SK-OV-3 ovarian,1770 nM
same,TGI,SK-OV-3 ovarian,3210 nM
same,GI50,NCI/ADR-RES ovarian,2010 nM
same,TGI,NCI/ADR-RES ovarian,5120 nM
same,GI50,SN12C renal,1830 nM
same,TGI,SN12C renal,4400 nM
same,GI50,SF-268 CNS,1580 nM
same,TGI,SF-268 CNS,3140 nM
same,GI50,DU-145 prostate,1220 nM
same,TGI,DU-145 prostate,2470 nM
same,GI50,OVCAR-4 ovarian,1190 nM
same,TGI,OVCAR-4 ovarian,2890 nM
same,GI50,OVCAR-5 ovarian,1990 nM
same,TGI,OVCAR-5 ovarian,5540 nM
same,GI50,CAKI-1 renal,491 nM
same,TGI,CAKI-1 renal,956 nM
same,GI50,EKVX NSCLC,1730 nM
same,TGI,EKVX NSCLC,3420 nM
same,GI50,MDA-MB-231 breast,1600 nM
same,TGI,MDA-MB-231 breast,3110 nM
same,GI50,MCF7 breast,1420 nM
same,TGI,MCF7 breast,3290 nM
same,GI50,HOP-92 NSCLC,1510 nM
same,TGI,HOP-92 NSCLC,2950 nM
same,GI50,SNB-75 CNS,1630 nM
same,TGI,SNB-75 CNS,3050 nM
same,GI50,UO-31 renal,1320 nM
same,TGI,UO-31 renal,2670 nM
same,GI50,ACHN renal,1540 nM
same,TGI,ACHN renal,2930 nM
same,GI50,CCRF-CEM leukemia,600 nM
same,TGI,CCRF-CEM leukemia,2440 nM
same,GI50,SW-620 colon,619 nM
same,TGI,SW-620 colon,1690 nM
same,GI50,OVCAR-8 ovarian,1870 nM
same,TGI,OVCAR-8 ovarian,5460 nM
same,GI50,HCC-2998 colon,1880 nM
same,TGI,HCC-2998 colon,3440 nM
same,GI50,TK-10 renal,1750 nM
same,TGI,TK-10 renal,3180 nM
same,GI50,HOP-62 NSCLC,1830 nM
same,TGI,HOP-62 NSCLC,3500 nM
same,GI50,MALME-3M melanoma,1600 nM
same,TGI,MALME-3M melanoma,3330 nM
same,GI50,HL-60(TB) leukemia,550 nM
same,TGI,HL-60(TB) leukemia,1580 nM
same,GI50,786-0 renal,655 nM
same,TGI,786-0 renal,1400 nM
same,GI50,HCT-15 colon,1600 nM
same,TGI,HCT-15 colon,3240 nM
same,GI50,HT29 colon,983 nM
same,TGI,HT29 colon,2860 nM
same,GI50,RPMI-8226 leukemia,1490 nM
same,TGI,RPMI-8226 leukemia,3750 nM
same,GI50,HCT-116 colon,951 nM
same,TGI,HCT-116 colon,2360 nM
same,GI50,SF-295 CNS,1570 nM
same,TGI,SF-295 CNS,2970 nM
same,GI50,OVCAR-3 ovarian,1610 nM
same,TGI,OVCAR-3 ovarian,3110 nM
same,GI50,U251 CNS,1540 nM
same,TGI,U251 CNS,2970 nM
same,GI50,M14 melanoma,1680 nM
same,TGI,M14 melanoma,3170 nM
same,GI50,K-562 leukemia,231 nM
same,TGI,K-562 leukemia,559 nM
same,GI50,SNB-19 CNS,1890 nM
same,TGI,SNB-19 CNS,3460 nM
same,GI50,A498 renal,2220 nM
same,TGI,A498 renal,5220 nM
same,GI50,UACC-62 melanoma,1730 nM
same,TGI,UACC-62 melanoma,3320 nM
same,GI50,MOLT-4 leukemia,600 nM
same,TGI,MOLT-4 leukemia,2290 nM
same,GI50,SF-539 CNS,1740 nM
same,TGI,SF-539 CNS,3170 nM
same,GI50,PC-3 prostate,1190 nM
same,TGI,PC-3 prostate,2540 nM
same,GI50,BT-549 breast,910 nM
same,TGI,BT-549 breast,2270 nM
same,GI50,SK-MEL-2 melanoma,2090 nM
same,TGI,SK-MEL-2 melanoma,3930 nM
